PubChem BioAssay (NCI)
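Method: 48-hour compound exposure of cells in 96-well plates, five concentrations, linear interpolation of endpoints. TGI is the concentration that stops growth completely.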

Experiments:
Assay in all cases: NCI anticancer screen, dose series, 48 h
[1] = tested on: SW-620 colon
[2] = tested on: ACHN renal
[3] = tested on: OVCAR-8 ovarian
[4] = tested on: A549 NSCLC
[5] = tested on: BT-549 breast
[6] = tested on: K-562 leukemia
[7] = tested on: 786-0 renal
[8] = tested on: HOP-92 NSCLC
[9] = tested on: HCT-116 colon
[10] = tested on: MDA-N
[11] = tested on: IGROV1 ovarian
[12] = tested on: UO-31 renal
[13] = tested on: SF-539 CNS
[14] = tested on: MOLT-4 leukemia
[15] = tested on: HL-60(TB) leukemia
[16] = tested on: UACC-257 melanoma
[17] = tested on: SNB-19 CNS
[18] = tested on: SN12C renal
[19] = tested on: COLO 205 colon
[20] = tested on: HOP-62 NSCLC
[21] = tested on: HCC-2998 colon
[22] = tested on: OVCAR-4 ovarian
[23] = tested on: NCI/ADR-RES ovarian
[24] = tested on: A498 renal
[25] = tested on: UACC-62 melanoma
[26] = tested on: HCT-15 colon
[27] = tested on: RPMI-8226 leukemia
[28] = tested on: SR leukemia
[29] = tested on: U251 CNS
[30] = tested on: NCI-H23 lung
[31] = tested on: PC-3 prostate
[32] = tested on: MDA-MB-231 breast
[33] = tested on: OVCAR-3 ovarian
[34] = tested on: HT29 colon
[35] = tested on: M14 melanoma
[36] = tested on: CCRF-CEM leukemia
[37] = tested on: NCI-H522 lung
[38] = tested on: SK-OV-3 ovarian
[39] = tested on: SK-MEL-2 melanoma
[40] = tested on: HS 578T breast
[41] = tested on: LOX IMVI melanoma
[42] = tested on: NCI-H226 lung
[43] = tested on: SK-MEL-28 melanoma
[44] = tested on: SNB-75 CNS
[45] = tested on: SK-MEL-5 melanoma
[46] = tested on: MDA-MB-435
[47] = tested on: RXF 393 renal
[48] = tested on: CAKI-1 renal
[49] = tested on: EKVX NSCLC
[50] = tested on: NCI-H460 lung
[51] = tested on: MALME-3M melanoma
[52] = tested on: KM12 colon
[53] = tested on: MCF7 breast
[54] = tested on: DU-145 prostate
[55] = tested on: TK-10 renal
[56] = tested on: SF-295 CNS
[57] = tested on: OVCAR-5 ovarian

C=C(C)[C@@H]1CC[C@]2(COC(C)=O)CC[C@]3(C)[C@H](CC[C@@H]4[C@@]5(C)CC[C@H](OC(C)=O)C(C)(C)[C@@H]5CC[C@]43C)[C@@H]12
TGI [1]: > 50 µM | TGI [2]: > 50 µM | TGI [3]: > 50 µM | TGI [4]: > 50 µM | TGI [5]: > 50 µM | TGI [6]: > 50 µM | TGI [7]: > 50 µM | TGI [8]: > 50 µM | TGI [9]: > 50 µM | TGI [10]: > 50 µM | TGI [11]: > 50 µM | TGI [12]: > 50 µM | TGI [13]: > 50 µM | TGI [14]: > 50 µM | TGI [15]: > 50 µM | TGI [16]: > 50 µM | TGI [17]: > 50 µM | TGI [18]: > 50 µM | TGI [19]: > 50 µM | TGI [20]: > 50 µM | TGI [21]: 1.67 µM | TGI [22]: > 50 µM | TGI [23]: > 50 µM | TGI [24]: > 50 µM | TGI [25]: > 50 µM | TGI [26]: > 50 µM | TGI [27]: > 50 µM | TGI [28]: > 50 µM | TGI [29]: > 50 µM | TGI [30]: > 50 µM | TGI [31]: > 50 µM | TGI [32]: > 50 µM | TGI [33]: > 50 µM | TGI [34]: > 50 µM | TGI [35]: > 50 µM | TGI [36]: > 50 µM | TGI [37]: > 50 µM | TGI [38]: > 50 µM | TGI [39]: > 50 µM | TGI [40]: > 50 µM | TGI [41]: > 50 µM | TGI [42]: > 50 µM | TGI [43]: > 50 µM | TGI [44]: > 50 µM | TGI [45]: > 50 µM | TGI [46]: > 50 µM

C=CCN(C(=O)OC(C)(C)C)C1=CC2C(C)=CN(S(=O)(=O)c3ccccc3)C2C(OCc2ccccc2)=C1 (configuration not stated)
TGI [1]: > 100 µM | TGI [2]: > 100 µM | TGI [47]: > 100 µM | TGI [3]: > 100 µM | TGI [4]: > 100 µM | TGI [5]: > 100 µM | TGI [6]: > 100 µM | TGI [7]: > 100 µM | TGI [48]: > 100 µM | TGI [9]: > 100 µM | TGI [10]: > 100 µM | TGI [11]: > 100 µM | TGI [12]: > 100 µM | TGI [14]: > 100 µM | TGI [49]: > 100 µM | TGI [15]: > 100 µM | TGI [16]: > 100 µM | TGI [18]: > 100 µM | TGI [19]: > 100 µM | TGI [20]: > 100 µM | TGI [21]: > 100 µM | TGI [22]: > 100 µM | TGI [23]: > 100 µM | TGI [50]: > 100 µM | TGI [25]: > 100 µM | TGI [26]: > 100 µM | TGI [27]: > 100 µM | TGI [29]: > 100 µM | TGI [30]: > 100 µM | TGI [31]: > 100 µM | TGI [32]: > 100 µM | TGI [51]: > 100 µM | TGI [33]: > 100 µM | TGI [34]: > 100 µM | TGI [35]: > 100 µM | TGI [36]: > 100 µM | TGI [37]: > 100 µM | TGI [38]: > 100 µM | TGI [39]: > 100 µM | TGI [40]: > 100 µM | TGI [52]: > 100 µM | TGI [53]: > 100 µM | TGI [41]: > 100 µM | TGI [42]: > 100 µM | TGI [54]: > 100 µM | TGI [43]: > 100 µM | TGI [55]: > 100 µM | TGI [44]: > 100 µM | TGI [45]: > 100 µM | TGI [56]: > 100 µM | TGI [57]: > 100 µM | TGI [46]: > 100 µM

O=C1Nc2c(Cl)cc(Cl)cc2/C1=N/N=C/c1ccccc1O
TGI [1]: 59.3 µM | TGI [2]: > 100 µM | TGI [47]: 50.7 µM | TGI [3]: > 100 µM | TGI [4]: 88.4 µM | TGI [5]: 35.7 µM | TGI [6]: 68.1 µM | TGI [7]: 40.9 µM | TGI [48]: 47.4 µM | TGI [8]: 62.8 µM | TGI [9]: 32.1 µM | TGI [10]: 35.1 µM | TGI [11]: 85.8 µM | TGI [12]: > 100 µM | TGI [13]: 41.6 µM | TGI [14]: 62.5 µM | TGI [49]: 91.5 µM | TGI [15]: 49.7 µM | TGI [16]: 66.3 µM | TGI [17]: > 100 µM | TGI [18]: 34.9 µM | TGI [19]: 31.4 µM | TGI [20]: 41.3 µM | TGI [21]: 34.3 µM | TGI [22]: > 100 µM | TGI [23]: 51.7 µM | TGI [24]: 36.9 µM | TGI [50]: 34.4 µM | TGI [25]: 32.1 µM | TGI [26]: 51 µM | TGI [28]: 46.5 µM | TGI [29]: 36.1 µM | TGI [30]: 40.3 µM | TGI [31]: 53.5 µM | TGI [32]: 54.7 µM | TGI [51]: 88.4 µM | TGI [33]: 34 µM | TGI [34]: 40.4 µM | TGI [35]: 49.8 µM | TGI [36]: 58.7 µM | TGI [38]: 88.1 µM | TGI [39]: 39.9 µM | TGI [40]: 72.2 µM | TGI [52]: 68.4 µM | TGI [53]: 94.2 µM | TGI [41]: 31.8 µM | TGI [42]: 74.6 µM | TGI [43]: 40.3 µM | TGI [55]: > 100 µM | TGI [44]: 48.2 µM | TGI [45]: 47.5 µM | TGI [56]: 47.7 µM | TGI [57]: 48.7 µM | TGI [46]: 51.6 µM
